In one series the target is T1, P-selectin (Homo sapiens, UniProt P16109).
T1 construct: P-selectin is isolated from human platelet lysates; from tissue; host or cells: human platelets (outdated platelet packs from a blood bank)
T1 sequence (P16109 42-830): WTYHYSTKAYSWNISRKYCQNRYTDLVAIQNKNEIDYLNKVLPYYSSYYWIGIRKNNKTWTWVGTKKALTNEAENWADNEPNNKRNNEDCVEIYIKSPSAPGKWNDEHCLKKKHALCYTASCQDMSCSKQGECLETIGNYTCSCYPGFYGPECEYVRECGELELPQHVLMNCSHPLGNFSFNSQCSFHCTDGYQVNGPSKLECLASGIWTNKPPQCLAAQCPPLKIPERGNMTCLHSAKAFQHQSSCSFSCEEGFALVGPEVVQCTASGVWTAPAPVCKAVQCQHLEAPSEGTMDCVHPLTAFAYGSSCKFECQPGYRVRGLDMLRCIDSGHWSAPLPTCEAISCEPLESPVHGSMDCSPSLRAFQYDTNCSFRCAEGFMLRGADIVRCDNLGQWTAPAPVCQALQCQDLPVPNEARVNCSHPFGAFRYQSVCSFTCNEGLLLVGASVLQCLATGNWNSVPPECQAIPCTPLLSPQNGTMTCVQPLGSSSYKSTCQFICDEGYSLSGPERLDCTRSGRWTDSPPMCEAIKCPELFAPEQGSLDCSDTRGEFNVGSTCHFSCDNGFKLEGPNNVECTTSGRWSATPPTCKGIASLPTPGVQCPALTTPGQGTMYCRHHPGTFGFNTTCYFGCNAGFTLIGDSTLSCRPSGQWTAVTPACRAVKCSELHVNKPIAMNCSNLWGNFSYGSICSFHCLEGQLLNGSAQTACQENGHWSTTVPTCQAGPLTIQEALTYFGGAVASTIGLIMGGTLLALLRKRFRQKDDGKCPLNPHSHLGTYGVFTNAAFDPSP
Description: Inhibition of human neutrophil adhesion to purified P-selectin immobilized on plastic wells. Type of series: cell-based. The conditions noted are these: for IC50: inhibiting the binding of human neutrophils to P-selectin; for biological activity / inhibiting neutrophil adhesion to P-selectin (result in words): human neutrophils, purified human P-selectin. The gist of the method: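 Isolated human neutrophils (2×10^5 per well) in HBSS with Ca2+/Mg2+ and HSA added to wells coated overnight at 4° C with platelet-derived P-selectin (5 micrograms/mL), HSA-blocked; 20 min at 22° C. Nonadherent cells removed by inverted centrifugation at 150 g; adherent cells quantified by myeloperoxidase activity.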

Where two headings read alike, the source gives them in different places. Where a SMILES comes first, the peptide text is derived from it. Bridges are numbered along the chain shown (N, C = ends). [ ]: non-standard residue; d: D form. Dap = NC[C@H](N)C(=O)O

Compound `CC(C)[C@@H](NC(=O)[C@@H](Cc1c[nH]c2ccccc12)NC(=O)[C@H](NC(=O)[C@@H](Cc1c[nH]c2ccccc12)NC(=O)[C@H]1CSSC[C@@H](NC(=O)[C@@H](CCCCN)NC(=O)[C@H](N)CCCNC(=N)N)C(=O)NCC(=O)N[C@@H](Cc2ccccc2)C(=O)N1)[C@H](C)O)C(N)=O` yielded a ring closure, yield of all isomers (from CC(C)[C@@H](NC(=O)[C@@H](Cc1c[nH]c2ccccc12)NC(=O)[C@H](NC(=O)[C@@H](Cc1c[nH]c2ccccc12)NC(=O)[C@@H](CS)NC(=O)[C@H](Cc1ccccc1)NC(=O)CNC(=O)[C@@H](CS)NC(=O)[C@@H](CCCCN)NC(=O)[C@H](N)CCCNC(=N)N)[C@H](C)O)C(N)=O, disulfide bond, DMSO, water, 0.253 mM, 16.0 h) of 10.8%. Compound `CC(C)[C@@H](NC(=O)[C@@H](Cc1c[nH]c2ccccc12)NC(=O)[C@H](NC(=O)[C@@H](Cc1c[nH]c2ccccc12)NC(=O)[C@H]1CSSC[C@@H](NC(=O)[C@@H](CCCCN)NC(=O)[C@H](N)CCCNC(=N)N)C(=O)NCCC(=O)N[C@@H](Cc2ccccc2)C(=O)N1)[C@H](C)O)C(N)=O` had a ring closure, yield of all isomers (from CC(C)[C@@H](NC(=O)[C@@H](Cc1c[nH]c2ccccc12)NC(=O)[C@H](NC(=O)[C@@H](Cc1c[nH]c2ccccc12)NC(=O)[C@@H](CS)NC(=O)[C@H](Cc1ccccc1)NC(=O)CCNC(=O)[C@@H](CS)NC(=O)[C@@H](CCCCN)NC(=O)[C@H](N)CCCNC(=N)N)[C@H](C)O)C(N)=O, disulfide bond, air, Cu wire, ammonium acetate pH 8.5, water, 0.842 mM, 22.0 h) of 8.1%. `CC(C)[C@H](NC(=O)[C@@H](Cc1c[nH]c2ccccc12)NC(=O)[C@H](NC(=O)[C@@H](Cc1c[nH]c2ccccc12)NC(=O)[C@H]1CSSC[C@@H](NC(=O)[C@@H](CCCCN)NC(=O)[C@H](N)CCCNC(=N)N)C(=O)NCC(=O)N[C@@H](Cc2ccccc2)C(=O)N1)[C@H](C)O)C(N)=O` registered a ring closure, yield of all isomers (from CC(C)[C@H](NC(=O)[C@@H](Cc1c[nH]c2ccccc12)NC(=O)[C@H](NC(=O)[C@@H](Cc1c[nH]c2ccccc12)NC(=O)[C@@H](CS)NC(=O)[C@H](Cc1ccccc1)NC(=O)CNC(=O)[C@@H](CS)NC(=O)[C@@H](CCCCN)NC(=O)[C@H](N)CCCNC(=N)N)[C@H](C)O)C(N)=O, disulfide bond, DMSO, water, 0.161 mM) of 9.4%. For the compound `CC(C)[C@H](NC(=O)[C@H](Cc1c[nH]c2ccccc12)NC(=O)[C@@H](NC(=O)[C@H](Cc1c[nH]c2ccccc12)NC(=O)[C@@H]1CC(=O)NC[C@H](NC(=O)[C@H](CCCCN)NC(=O)[C@@H](N)CCCNC(=N)N)C(=O)NCC(=O)NCC(=O)N1)[C@@H](C)O)C(N)=O`, the ring closure, yield of all isomers (amide bond, BOP/HOBt/DIEA, NMP, 80.0 h, 9 steps) was 8.5%.

Broadly, the IC50 is the midpoint of a concentration-inhibition curve. Low values mean greater potency in that assay, high ones weaker potency in that assay. The compound `CC[C@@H](C)[C@H]1NC(=O)[C@H](NC(=O)[C@H](N)CCCNC(=N)N)CSSC[C@H](C(=O)N[C@@H](C(=O)N[C@H](Cc2c[nH]c3ccccc23)C(=O)N[C@@H](C(=O)N[C@H](Cc2c[nH]c3ccccc23)C(=O)N[C@@H](C(N)=O)C(C)C)[C@H](C)O)[C@H](C)CC)NC(=O)CNC1=O` [(4)] (H-[dR][dC][dI]G[dC][dI][dW][dT][dW][dV]-NH2; disulfide 2-5) had a ring closure, yield of all isomers (from CC[C@@H](C)[C@@H](NC(=O)[C@@H](CS)NC(=O)[C@H](N)CCCNC(=N)N)C(=O)NCC(=O)N[C@H](CS)C(=O)N[C@@H](C(=O)N[C@H](Cc1c[nH]c2ccccc12)C(=O)N[C@@H](C(=O)N[C@H](Cc1c[nH]c2ccccc12)C(=O)N[C@@H](C(N)=O)C(C)C)[C@H](C)O)[C@H](C)CC, disulfide bond, DMSO, water, 0.405 mM, 16.0 h) of 43.1%. The IC50 at P-selectin amounted to 41 µM. For the compound `CC(C)[C@H](NC(=O)[C@H](Cc1c[nH]c2ccccc12)NC(=O)[C@@H](NC(=O)[C@H](Cc1c[nH]c2ccccc12)NC(=O)[C@@H]1CSSC[C@H](NC(=O)[C@H](CCCCN)NC(=O)[C@@H](N)CCCNC(=N)N)C(=O)NCC(=O)NCC(=O)N1)[C@@H](C)O)C(N)=O` [(9)] (H-RKCGGCWTWV-NH2; disulfide 3-6), the ring closure, yield of all isomers (from CC(C)[C@H](NC(=O)[C@H](Cc1c[nH]c2ccccc12)NC(=O)[C@@H](NC(=O)[C@H](Cc1c[nH]c2ccccc12)NC(=O)[C@H](CS)NC(=O)CNC(=O)CNC(=O)[C@H](CS)NC(=O)[C@H](CCCCN)NC(=O)[C@@H](N)CCCNC(=N)N)[C@@H](C)O)C(N)=O, disulfide bond, DMSO, water, 0.456 mM, 16.0 h) was found to be 4.4%. The same compound showed a 50% inhibitory concentration (IC50) on P-selectin of 3 µM. As to `CC(C)[C@@H](NC(=O)[C@@H](Cc1c[nH]c2ccccc12)NC(=O)[C@H](NC(=O)[C@@H](Cc1c[nH]c2ccccc12)NC(=O)[C@H]1CSSC[C@@H](NC(=O)[C@@H](CCCCN)NC(=O)[C@H](N)CCCNC(=N)N)C(=O)N[C@H](C)C(=O)N[C@@H](Cc2ccccc2)C(=O)N1)[C@H](C)O)C(N)=O` [(11)] (H-[dR][dK][dC][dA]F[dC][dW][dT][dW][dV]-NH2; disulfide 3-6), the ring closure, yield of all isomers (from CC(C)[C@@H](NC(=O)[C@@H](Cc1c[nH]c2ccccc12)NC(=O)[C@H](NC(=O)[C@@H](Cc1c[nH]c2ccccc12)NC(=O)[C@@H](CS)NC(=O)[C@H](Cc1ccccc1)NC(=O)[C@@H](C)NC(=O)[C@@H](CS)NC(=O)[C@@H](CCCCN)NC(=O)[C@H](N)CCCNC(=N)N)[C@H](C)O)C(N)=O, disulfide bond, air, Cu wire, dilute AcOH/NH4OH pH 8.5, water, 3.08 mM) amounted to 2.4%. The half-maximal inhibitory concentration (IC50) on P-selectin is 7 µM. At P-selectin, `CC(C)[C@@H](NC(=O)[C@@H](Cc1c[nH]c2ccccc12)NC(=O)[C@H](NC(=O)[C@@H](Cc1c[nH]c2ccccc12)NC(=O)[C@H]1CSSC[C@@H](NC(=O)[C@@H](CCCCN)NC(=O)[C@H](N)CC(=O)O)C(=O)NCC(=O)N[C@@H](Cc2ccccc2)C(=O)N1)[C@H](C)O)C(N)=O` [(117)] (H-[dD][dK][dC]GF[dC][dW][dT][dW][dV]-NH2; disulfide 3-6) showed a concentration for half-maximal inhibition (IC50) of 238 µM. As to `CC[C@H](C)[C@@H]1NC(=O)[C@H](CCCCN)NC(=O)[C@@H](N)CCC(=O)NCCCC[C@@H](C(=O)N[C@@H](Cc2c[nH]c3ccccc23)C(=O)N[C@H](C(=O)N[C@@H](Cc2c[nH]c3ccccc23)C(=O)N[C@H](C(N)=O)C(C)C)[C@@H](C)O)NC(=O)CNC(=O)CNC1=O` [Preferred peptide (1), Cyclo(glutamyl-lysyl-isoleucyl-glycyl-glycyl-lysyl)-tryptophyl-threonyl-tryptophyl-valine-amide] (H-EKIGGKWTWV-NH2; lactam 1-6), the IC50 on P-selectin stood at 115 µM.

`CC(C)[C@H](NC(=O)[C@H](Cc1c[nH]c2ccccc12)NC(=O)[C@@H](NC(=O)[C@H](Cc1c[nH]c2ccccc12)NC(=O)[C@@H]1CC(=O)NC[C@H](NC(=O)[C@H](CCCCN)NC(=O)[C@@H](N)CCCNC(=N)N)C(=O)NCC(=O)NCC(=O)N1)[C@@H](C)O)C(N)=O` [Preferred peptide (22), Arginyl-lysyl-cyclo(diaminopropionyl-glycyl-glycyl-aspartyl)-tryptophyl-threonyl-tryptophyl-valine-amide] (H-RK[Dap]GGDWTWV-NH2; lactam 3-6): the “concentration at which active in inhibiting neutrophil adhesion to P-selectin” value on P-selectin (stated in text as 'active at') was determined as 13 mM. Turning to `CC[C@H](C)[C@H](NC(=O)[C@H](CCCCN)NC(=O)[C@@H](N)CCCNC(=N)N)C(=O)NCC(=O)NCC(=O)N[C@H]1CCCCNC(=O)CC[C@@H](C(N)=O)NC(=O)[C@H](Cc2c[nH]c3ccccc23)NC(=O)[C@H]([C@@H](C)O)NC(=O)[C@H](Cc2c[nH]c3ccccc23)NC1=O` [SEQ ID NO:1, Arg-Lys-Ile-Gly-Gly-cyclo(Lys-Trp-Thr-Trp-Glu)-NH2] (H-RKIGGKWTWE-NH2; lactam 6-10), the “biological activity / inhibiting neutrophil adhesion to P-selectin (result in words)” value at P-selectin was “inactive”. On to `CC[C@H](C)[C@H](NC(=O)[C@H](CCCCN)NC(=O)[C@@H](N)CCCNC(=N)N)C(=O)NCC(=O)NCC(=O)N[C@H]1CCC(=O)NCCCC[C@@H](C(N)=O)NC(=O)[C@H](Cc2c[nH]c3ccccc23)NC(=O)[C@H]([C@@H](C)O)NC(=O)[C@H](Cc2c[nH]c3ccccc23)NC1=O` [SEQ ID NO:2, Arg-Lys-Ile-Gly-Gly-cyclo(Glu-Trp-Thr-Trp-Lys)-NH2] (H-RKIGGEWTWK-NH2; lactam 6-10), for which the “biological activity / inhibiting neutrophil adhesion to P-selectin (result in words)” value on P-selectin was “inactive”. Turning to `CC(C)[C@H](NC(=O)[C@H](Cc1c[nH]c2ccccc12)NC(=O)[C@@H](NC(=O)[C@H](Cc1c[nH]c2ccccc12)NC(=O)[C@@H]1CNC(=O)C[C@H](NC(=O)[C@H](CCCCN)NC(=O)[C@@H](N)CCCNC(=N)N)C(=O)NCC(=O)NCC(=O)N1)[C@@H](C)O)C(N)=O` [SEQ ID NO:3, Arg-Lys-cyclo(Asp-Gly-Gly-Dap)-Trp-Thr-Trp-Val-NH2] (H-RKDGG[Dap]WTWV-NH2; lactam 3-6), the “biological activity / inhibiting neutrophil adhesion to P-selectin (result in words)” value on P-selectin was “totally inactive”.

Values taken from patent US5753617A, “Peptide inhibitors of cellular adhesion” (Centocor, Inc., priority 1995, dated 1998).
